In publication PMC5421464, “Characterization of the single-subunit oligosaccharyltransferase STT3A from Trypanosoma brucei using synthetic peptides and lipid-linked oligosaccharide analogs” (Glycobiology, 2017):

Tests used:
[1] = test system: octa-subunit OST complex from pig liver; parameters: method as in Bause et al. 1995; details: ref Bause et al. 1995; cited from earlier work
[2] = test system: octa-subunit OST complex from yeast; parameters: method as in Tai and Imperiali 2001; details: ref Tai and Imperiali 2001; cited from earlier work
bacterial flippase PglK = test system: bacterial flippase PglK; parameters: method as in Perez et al. 2015; details: in detergent; ref Perez et al. 2015; cited from earlier work
TbSTT3A = molecular target: T1, TbSTT3A (Trypanosoma brucei, UniProt Q57W34); experiment: In vitro glycosylation assay, turnover rate of acceptor peptides (Tricine SDS-PAGE fluorescence); assay type: biochemical; details: 50 µM donor, overnight incubation, vast excess substrate
T1 sequence (Q57W34 1-801): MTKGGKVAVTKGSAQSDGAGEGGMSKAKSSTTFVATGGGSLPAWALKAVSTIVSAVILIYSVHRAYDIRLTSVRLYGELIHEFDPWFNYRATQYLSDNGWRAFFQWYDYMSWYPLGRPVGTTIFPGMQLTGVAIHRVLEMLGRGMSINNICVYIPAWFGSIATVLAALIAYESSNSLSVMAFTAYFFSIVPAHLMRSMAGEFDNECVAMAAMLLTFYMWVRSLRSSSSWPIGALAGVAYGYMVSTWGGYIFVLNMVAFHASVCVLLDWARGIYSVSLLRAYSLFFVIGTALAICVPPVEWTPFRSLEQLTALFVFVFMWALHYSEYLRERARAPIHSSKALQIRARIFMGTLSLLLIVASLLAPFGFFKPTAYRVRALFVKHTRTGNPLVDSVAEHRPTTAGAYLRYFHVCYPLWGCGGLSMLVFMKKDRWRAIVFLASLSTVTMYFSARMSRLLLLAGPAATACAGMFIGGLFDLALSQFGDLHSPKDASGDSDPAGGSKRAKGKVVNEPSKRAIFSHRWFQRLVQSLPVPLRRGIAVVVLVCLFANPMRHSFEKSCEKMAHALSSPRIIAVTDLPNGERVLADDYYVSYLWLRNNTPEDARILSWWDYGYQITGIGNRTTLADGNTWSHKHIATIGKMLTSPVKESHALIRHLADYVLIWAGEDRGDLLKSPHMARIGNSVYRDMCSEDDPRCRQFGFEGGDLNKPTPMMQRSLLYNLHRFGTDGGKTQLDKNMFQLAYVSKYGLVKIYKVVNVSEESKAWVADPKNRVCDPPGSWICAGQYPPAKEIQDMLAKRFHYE
Protocol: Fig. 2. Optimization of the acceptor peptide sequence. (A) Synthetic acceptor peptides are shown in single letter code. The acceptor asparagine (zero position of the sequon) is indicated in red. Glycosylation experiments were performed and the fluorescently labeled substrate (G0) and product (G1) were quantified following Tricine SDS-PAGE analysis. (B) Turnover rates after fitting the time points by linear regression using PRISM. Error bars indicate standard error of the fitting. (C) Kinetic analysis of substrate peptides: glycosylation experiments were performed with 20 nM purified TbSTT3A, 50 µM farnesyl-PP-chitobiose, 10 mM MnCl2, 150 mM NaCl, 20 mM Hepes pH 7.5, 0.035% DDM, 0.007% CHS and different concentrations of peptides varying from 2 to 60 µM. Data points reflect the mean of three separate measurements. Error bars indicate standard deviations. Data were fitted by nonlinear regression according to the Michaelis–Menten formula using PRISM. This figure is available in black and white in print and in color at Glycobiology online.
Reaction mixtures contained 20 nM purified TbSTT3A protein, 50µM farnesyl-PP-GlcNAc or farnesyl-PP-chitobiose, 10 mM MnCl2, 150 mM NaCl, 20 mM Hepes pH 7.5, 0.035% DDM, 0.007% CHS and 20 µM of the peptide. Reactions were incubated at 30°C. Samples were taken at different time points and reactions were stopped by the addition of 4X SDS Laemmli buffer. Samples were diluted 200-fold prior to analysis by Tricine SDS-PAGE consisting of a 16% resolving gel with 6 M urea, a 10% spacer gel and a 4% stacking gel ([Schägger 2006]). Fluorescent bands for peptide and glycopeptide were visualized by using a Typhoon Trio Plus imager (GE Healthcare) with excitation set at 488 nm and using a 526 nm SP emission filter. The amount of formed glycopeptide was determined from band intensities of fluorescence gel scans (ImageJ) ([Gerber et al. 2013]). Turnover rate determination was performed by fitting of the data to linear regression using PRISM software.
Supplementary Figure 2: Glycosylation Assays with farnesyl-PP-GlcNAc. In vitro glycosylation experiments were performed with 20nM purified TbStt3A purified protein, 50µM Farnesyl-PP-GlcNAc or Farnesyl-PP-GlcNac2, 10 mM MnCl2, 150 mM NaCl, 20 mM Hepes pH 7.5, 0.035% DDM, 0.007% CHS and 10 µM of the peptide P1.

PglB = PglB (Campylobacter lari, UniProt B9KDD4); experiment: In vitro substrate test with PglB; assay type: biochemical; details: data not shown
PglB, sequence (B9KDD4 whole entry): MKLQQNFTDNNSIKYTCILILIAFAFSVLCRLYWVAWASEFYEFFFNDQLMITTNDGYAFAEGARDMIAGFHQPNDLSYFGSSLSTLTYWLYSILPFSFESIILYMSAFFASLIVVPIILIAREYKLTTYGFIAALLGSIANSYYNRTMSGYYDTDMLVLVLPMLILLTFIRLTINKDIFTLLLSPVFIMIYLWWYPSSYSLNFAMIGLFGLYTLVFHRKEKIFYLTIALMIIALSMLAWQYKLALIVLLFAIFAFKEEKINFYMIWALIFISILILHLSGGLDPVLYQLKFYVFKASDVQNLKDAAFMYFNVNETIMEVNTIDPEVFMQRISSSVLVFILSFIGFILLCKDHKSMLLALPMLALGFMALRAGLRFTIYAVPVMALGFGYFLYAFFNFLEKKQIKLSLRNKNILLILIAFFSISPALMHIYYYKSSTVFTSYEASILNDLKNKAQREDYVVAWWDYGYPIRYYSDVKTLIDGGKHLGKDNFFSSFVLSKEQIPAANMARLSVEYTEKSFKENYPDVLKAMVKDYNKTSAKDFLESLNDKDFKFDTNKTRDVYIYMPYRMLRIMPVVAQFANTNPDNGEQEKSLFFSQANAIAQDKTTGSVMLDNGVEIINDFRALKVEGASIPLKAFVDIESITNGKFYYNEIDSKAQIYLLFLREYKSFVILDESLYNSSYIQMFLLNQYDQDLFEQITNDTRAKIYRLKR

[3] = substrate: CC(=O)N[C@H]1[C@@H](OP(=O)(O)OP(=O)(O)OC/C=C(\C)CC/C=C(\C)CCC=C(C)C)O[C@H](CO)[C@@H](O[C@@H]2O[C@H](CO)[C@@H](O)[C@H](O)[C@H]2NC(C)=O)[C@@H]1O; experiment: Michaelis-Menten kinetics of the LLO analogs; assay type: biochemical, Trypanosoma brucei; details: other: 20 nM TbSTT3A, 10 µM acceptor peptide, varying LLO analog concentration; pH 7.5
Protocol: (§1) Fig. 3. (A) Structure of the LLO analogs synthesized (1a) (S)-Citronellyl-PP-Chitobiose, C10; (1b) farnesyl-PP-chitobiose, C15; (1c) (S)-NerylCitronellyl-PP-chitobiose, C20; (1d) (S)-farnesylCitronellyl-PP-chitobiose, C25. (B) Kinetic analysis of synthetic LLO analogs. Glycosylation experiments were performed with 20 nM purified TbSTT3A, 10 µM […], 10 mM MnCl2, 150 mM NaCl, 20 mM Hepes pH 7.5, 0.035% DDM, 0.007% CHS and different concentrations of synthetic LLO analogs. Data points reflect the mean of 3 separate measurements. Error bars indicate standard deviations. Data were fitted by nonlinear regression according to the Michaelis–Menten formula using PRISM software. This figure is available in black and white in print and in color at Glycobiology online.
(§2) For Michaelis–Menten kinetics of the LLO analogs, reaction mixtures containing 20 nM TbSTT3A protein, 10 µM peptide P11, 10 mM MnCl2, 150 mM NaCl, 20 mM Hepes pH 7.5, 0.035% DDM and 0.007% CHS were incubated with different concentrations of LLO analogs (10–900 µM, for 1a; 2–60 µM, for 1b; 1–50 µM, for 1c and 1–20 µM, for 1d). Samples were taken at different time points and turnover rates of the reactions were determined as before. Data were fitted by nonlinear regression according to the Michaelis–Menten formula using PRISM software.

[4] = substrate: [H][C@@]1(O[C@H]2[C@H](O)[C@@H](NC(C)=O)[C@@H](OP(=O)(O)OP(=O)(O)OCC[C@@H](C)CCC=C(C)C)O[C@@H]2CO)O[C@H](CO)[C@@H](O)[C@H](O)[C@H]1NC(C)=O; experiment: Michaelis-Menten kinetics of the LLO analogs; assay type: biochemical, Trypanosoma brucei; details: other: 20 nM TbSTT3A, 10 µM acceptor peptide, varying LLO analog concentration; pH 7.5
Protocol: as §1, §2

[5] = substrate: CC(=O)N[C@H]1[C@@H](OP(=O)(O)OP(=O)(O)OCC[C@@H](C)CC/C=C(/C)CC/C=C(\C)CC/C=C(\C)CCC=C(C)C)O[C@H](CO)[C@@H](O[C@@H]2O[C@H](CO)[C@@H](O)[C@H](O)[C@H]2NC(C)=O)[C@@H]1O; experiment: Michaelis-Menten kinetics of the LLO analogs; assay type: biochemical, Trypanosoma brucei; details: other: 20 nM TbSTT3A, 10 µM acceptor peptide, varying LLO analog concentration; pH 7.5
Protocol: as §1, §2

[6] = substrate: CC(=O)NC1C(OC2C(CO)OC(OP(=O)(O)OP(=O)(O)OCCC(C)CCC=C(C)CCC=C(C)CCC=C(C)C)C(NC(C)=O)C2O)OC(CO)C(O)C1O; experiment: Michaelis-Menten kinetics of the LLO analogs; assay type: biochemical, Trypanosoma brucei; details: other: 20 nM TbSTT3A, 10 µM acceptor peptide, varying LLO analog concentration; pH 7.5
Protocol: as §1, §2

For Dol-PP-GlcNAc, the “Recognition as donor substrate in vitro” value [1] is given as “poor donor” and the “Recognition as donor substrate in vitro” value [2] is given as “poor donor”.

For CC(=O)NC1C(OP(=O)(O)OP(=O)(O)OCC=C(C)CCC=C(C)CCC=C(C)C)OC(CO)C(O)C1O (stereo not shown) [farnesyl-PP-GlcNAc, reference compound], the “Effect on ATPase activity of PglK” value (bacterial flippase PglK) is listed as “stimulated ATPase activity”, the “Donor substrate for TbSTT3A (glycopeptide product formation)” value (TbSTT3A) is listed as “no glycopeptide product was observed” and the “Donor substrate for TbSTT3A (glycopeptide product formation)” value (TbSTT3A; listed as farnesyl-PP-GlcNac) is listed as “not recognized as a substrate”. For the same molecule, the “In vitro substrate of PglB” value (PglB) was “accepted as an in vitro substrate”.

B1: TbSTT3A (Trypanosoma brucei brucei TREU927) (protein)
chain: MTKGGKVAVTKGSAQSDGAGEGGMSKAKSSTTFVATGGGSLPAWALKAVSTIVSAVILIYSVHRAYDIRLTSVRLYGELIHEFDPWFNYRATQYLSDNGWRAFFQWYDYMSWYPLGRPVGTTIFPGMQLTGVAIHRVLEMLGRGMSINNICVYIPAWFGSIATVLAALIAYESSNSLSVMAFTAYFFSIVPAHLMRSMAGEFDNECVAMAAMLLTFYMWVRSLRSSSSWPIGALAGVAYGYMVSTWGGYIFVLNMVAFHASVCVLLDWARGIYSVSLLRAYSLFFVIGTALAICVPPVEWTPFRSLEQLTALFVFVFMWALHYSEYLRERARAPIHSSKALQIRARIFMGTLSLLLIVASLLAPFGFFKPTAYRVRALFVKHTRTGNPLVDSVAEHRPTTAGAYLRYFHVCYPLWGCGGLSMLVFMKKDRWRAIVFLASLSTVTMYFSARMSRLLLLAGPAATACAGMFIGGLFDLALSQFGDLHSPKDASGDSDPAGGSKRAKGKVVNEPSKRAIFSHRWFQRLVQSLPVPLRRGIAVVVLVCLFANPMRHSFEKSCEKMAHALSSPRIIAVTDLPNGERVLADDYYVSYLWLRNNTPEDARILSWWDYGYQITGIGNRTTLADGNTWSHKHIATIGKMLTSPVKESHALIRHLADYVLIWAGEDRGDLLKSPHMARIGNSVYRDMCSEDDPRCRQFGFEGGDLNKPTPMMQRSLLYNLHRFGTDGGKTQLDKNMFQLAYVSKYGLVKIYKVVNVSEESKAWVADPKNRVCDPPGSWICAGQYPPAKEIQDMLAKRFHYE
With B1 the Km [3] was 5.6 ± 0.8 µM, the Km [4] was 95 ± 18 µM and the Km [5] was 2.5 ± 0.3 µM. For the same molecule, the Km [6] was 5.3 ± 0.9 µM.
